The record followed here is patent US20070041899A1, “Radiolabelled substrates” (priority 2003, published 2007).

The structures appear in SMILES notation.

One data set deals with P-glycoprotein (Sus scrofa, UniProt K7GMM7). The settings on record: pig. The source says:
(§1) The animals (pig, Yorkshire Iandrace, 37.5 kg, n=2) were scanned under terminal aneasthesia (ketamine induced isoflurane aneasthesia) on different days. For both animals an arterial cannula was inserted in one of the femoral arteries.

Data set [1] can be described thus: Rate of metabolism of [^11C]loperamide (arterial blood sampling) in pig.
Excerpt: as §1

P-glycoprotein, sequence (K7GMM7 1-1248): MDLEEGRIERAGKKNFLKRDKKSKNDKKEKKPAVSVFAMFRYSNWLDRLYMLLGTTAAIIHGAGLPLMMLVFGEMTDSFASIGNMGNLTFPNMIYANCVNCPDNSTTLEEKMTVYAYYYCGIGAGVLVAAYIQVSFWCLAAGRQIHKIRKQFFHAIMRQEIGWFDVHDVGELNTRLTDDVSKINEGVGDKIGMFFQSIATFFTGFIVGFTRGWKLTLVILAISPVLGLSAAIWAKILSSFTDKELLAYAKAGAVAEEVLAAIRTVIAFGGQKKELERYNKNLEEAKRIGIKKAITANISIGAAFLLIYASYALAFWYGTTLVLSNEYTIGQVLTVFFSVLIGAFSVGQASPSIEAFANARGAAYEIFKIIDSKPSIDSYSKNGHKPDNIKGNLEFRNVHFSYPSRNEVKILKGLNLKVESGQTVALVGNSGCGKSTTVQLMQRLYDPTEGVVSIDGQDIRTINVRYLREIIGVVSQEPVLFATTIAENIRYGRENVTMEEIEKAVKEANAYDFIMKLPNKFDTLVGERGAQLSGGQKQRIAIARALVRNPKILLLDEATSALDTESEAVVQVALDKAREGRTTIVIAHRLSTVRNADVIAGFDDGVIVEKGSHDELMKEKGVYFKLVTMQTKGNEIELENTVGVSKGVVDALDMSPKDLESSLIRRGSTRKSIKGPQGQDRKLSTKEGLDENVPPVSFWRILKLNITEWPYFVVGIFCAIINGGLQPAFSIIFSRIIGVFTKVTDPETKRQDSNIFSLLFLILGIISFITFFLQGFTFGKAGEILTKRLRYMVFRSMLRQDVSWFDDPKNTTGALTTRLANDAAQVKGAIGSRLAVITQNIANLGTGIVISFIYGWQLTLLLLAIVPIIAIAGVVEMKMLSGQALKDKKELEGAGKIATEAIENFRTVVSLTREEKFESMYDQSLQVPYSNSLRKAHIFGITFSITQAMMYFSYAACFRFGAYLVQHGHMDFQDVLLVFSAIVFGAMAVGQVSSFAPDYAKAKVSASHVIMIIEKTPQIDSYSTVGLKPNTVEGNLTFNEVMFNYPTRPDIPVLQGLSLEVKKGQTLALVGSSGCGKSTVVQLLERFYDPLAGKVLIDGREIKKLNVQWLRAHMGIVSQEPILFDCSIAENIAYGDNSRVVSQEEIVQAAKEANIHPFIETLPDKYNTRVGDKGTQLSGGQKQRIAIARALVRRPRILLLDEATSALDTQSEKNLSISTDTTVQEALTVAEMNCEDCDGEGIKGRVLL

For `CN([11CH3])C(=O)C(CCN1CCC(O)(c2ccc(Cl)cc2)CC1)(c1ccccc1)c1ccccc1` [[^11C]loperamide, ^11C—N-methyl-(4-chlorophenyl)+hydroxy-N,N-dimethyl-alpha,alpha-diphenyl-1-piperidinebutyramide], the “Maximum increase of CNS penetration for the brain as a whole” value on P-glycoprotein (at a dose of 40-50 mg/kg Cyclosporin A i.v. 30 min prior) is listed as 7 fold. Also, the “% injected dose/L (CNS penetration)” value at P-glycoprotein (i.v. 1 min bolus, baseline conditions, PET) is “below 1%”. For the same compound, on P-glycoprotein (i.v. various doses of cyclosporin A 30 min prior to injection), the “radioactive signal in the brain as measured with PET scanning” value is listed as “dose dependent increase”. In addition, the “rate of metabolism: parent at 60 min post administration” value in data set [1] (at doses of CsA >10 mg/kg) is “approx. 80 % parent”; in data set [1] (without CsA >10 mg/kg (before decrease)), “approx. 50 % parent”.
